Test results as given in paper PMC3458012, “Gliadin Peptides Induce Tissue Transglutaminase Activation and ER-Stress through Ca^2+ Mobilization in Caco-2 Cells” (PLoS ONE, 2012).
Ends that are not written are not given here.

What was measured:
[1] = system: GRP78; experiment: GRP78 protein level by western blot; assay type: cell-based; conditions: Caco-2 cells, 24 h, THP 1 µM, normalized to tubulin
Description: (§1) Cells were washed with phosphate-buffered saline solution and mechanically harvested in lysis buffer, consisting of 20 mM Tris-HCl, pH 7.5, 150 mM NaCl, 1 mM EDTA, 1 mM dithiotreitol, 0.1% sodium dodecyl sulphate, 1% triton X-100, 1 mM ortovanadate, and inhibitors cocktail (Sigma-Aldrich). After 30 min of incubation on ice, cell extracts were centrifuged at 12,000 g for 30 min at 4°C, to remove cell debris, then 75 µg of total proteins were separated by 10% sodium dodecyl sulphate-polyacrylamide gel electrophoresis and transferred to a membrane. To detect tTG, the blot was treated as described elsewhere. To detect GRP78 and CHOP, the blots were treated with 5% skim milk in phosphate-buffered saline overnight at 4°C, then incubated for 2 h with an anti-GRP78 rabbit polyclonal antibody (H-129) (1∶500; Santa Cruz, CA, USA), or with an anti-CHOP mouse monoclonal antibody (1∶1,500; Santa Cruz), respectively, in phosphate-buffered saline containing 0.1% tween-20. After washing, the blots were incubated for 1 h at room temperature with an anti-rabbit-peroxidase secondary antibody (1∶10,000; Bio-Rad Laboratories), or with an anti-mouse-peroxidase secondary antibody (1∶10,000; Bio-Rad Laboratories), respectively.

[2] = system: CHOP; experiment: CHOP mRNA by real-time RT-PCR; assay type: cell-based, human; conditions: Caco-2 cells, 24 h, peptides 20 µg/ml, THP 1 µM, normalized to GAPDH
[3] = system: CHOP; experiment: CHOP protein level by western blot; assay type: cell-based; conditions: Caco-2 cells, 24 h, peptides 20 µg/ml, THP 1 µM, normalized to tubulin
Description: as §1

[4] = system: GRP78; experiment: GRP78 mRNA by real-time RT-PCR; assay type: cell-based, human; conditions: Caco-2 cells, 24 h, peptides 20 µg/ml, THP 1 µM, normalized to GAPDH
[5] = system: intracellular tTG; experiment: In situ tTG transamidating activity, pentylamine-biotin incorporation, microscopy; assay type: cell-based; conditions: Caco-2 cells; for In situ tTG crosslinking activity (fluorescence of pentylamine-biotin incorporation): 30 min, complete medium, peptides 20 µg/ml, ionomycin 10 µM, THP 1 µM, 0.5 mM pentylamine-biotin
Description: (§2) In situ tTG activity was visualized by using the tTG substrate pentylamine-biotin (Euroclone, Milan, Italy) as reported elsewhere. Caco-2 cells were treated for 30 min with 10 µM ionomycin (Sigma-Aldrich, Milan, Italy), or with different amounts of gliadin peptides, or with 1 µM THP, in the presence of 0.5 mM pentylamine-biotin, before being processed for microscopy observation. To visualize biotin-labeled p31–43 and p57–68 in the cells, peptides needed to be used at a concentration of 0.2 mM. […] Pentylamine-biotin was also used to quantify the tTG transamidating activity by a microplate assay. Briefly, after 30 min of treatment with 20 µg/ml gliadin peptides, or with 1 µM THP, cells were lysed and proteins (25 µg) were coated into the wells of a 96-well plate. The wells were blocked with 10% bovine serum albumin then incubated with 1∶5000 peroxidase-conjugated streptavidin (Euroclone) in 5% bovine serum albumin. To reveal peroxidase activity, 3,3′,5,5′-tetramethylbenzidine (Sigma-Aldrich, Milan, Italy) was added to each well and, after stopping the reaction with H2SO4, absorbances were read at 450 nm.

[6] = system: intracellular tTG; experiment: Microplate assay of tTG transamidating activity on cell lysates; assay type: cell-based; conditions: Caco-2 cells
Description: as §2

[7] = system: Caco-2 cells; assay type: cell-based
Description: Intracellular Ca^2+ concentration ([Ca^2+]i) was measured in Caco-2 cells by single cell computer-assisted videoimaging using the Ca^2+ indicator Fura-2 acetoxymethyl ester, as previously described, [22]. Gliadin peptides were loaded at concentrations between 0.2 and 20 µg/ml for 30 min at 37°C in normal Krebs solution containing the following (in mM): 5.5 KCl, 160 NaCl, 1.2 MgCl2, 1.5 CaCl2, 10 glucose, and 10 Hepes-NaOH, pH 7.4. To selectively deplete intracellular Ca^2+ stores, experiments were performed in the presence of thapsigargin (THP) (1 µM), an irreversible and selective inhibitor of the sarco(endo)plasmic reticulum Ca^2+ ATPase, and in the presence of the mitochondrial uncoupler carbonylcyanide-p-trifluoromethoxyphenylhydrazone (FCCP) (300 nm).

C/C=C(/C)C(=O)O[C@H]1C(C)=C2[C@H]([C@@H]1OC(=O)CCCCCCC)[C@@](C)(OC(C)=O)C[C@H](OC(=O)CCC)[C@@]1(O)[C@H]2OC(=O)[C@@]1(C)O [THP, thapsigargin]
Increase of GRP78 protein expression [1]: about five-fold
Increase of CHOP mRNA expression [2]: about 14 fold
Increase of CHOP protein expression [3]: three-fold
Increase of GRP78 mRNA expression with respect to untreated cells [4]: about 30 fold
In situ tTG crosslinking activity (fluorescence of pentylamine-biotin incorporation) [5]: sufficient to activate intracellular tTG
In situ tTG activation in Ca2+-free medium ([5]; phosphate-buffered saline without Ca2+ and Mg2+): sufficient to activate intracellular tTG
Increase of tTG activity versus cells exposed to pentylamine-biotin alone ([6]; 30 min, peptides 20 µg/ml or THP 1 µM, 25 µg lysate, absorbance 450 nm, at least 3 experiments in triplicate): similar

NCCSSCCN [cystamin]
Inhibition of in situ tTG activation induced by ionomycin and p31–43 ([5]; cystamin 200 µM added 5 min before treatment): inhibited the tTG activation
Effect of cystamin pretreatment on tTG activity induced by ionomycin or p31–43 ([6]; microplate assay, three experiments in triplicate): significant reduction of tTG activity

LGQQQPFPPQQPY [p31–43]
EC50 of [Ca2+]i increase [7]: 0.2 µg/mL

LPQFEEIRNLALQTLPAM [p229–246]
In situ tTG crosslinking activity (fluorescence of pentylamine-biotin incorporation) [5]: fluorescence intensity did not increase

PLIRPLLARPAK [pHTP, irrelevant control peptide, 537–548 region of the human thyroid peroxidase]
In situ tTG crosslinking activity (fluorescence of pentylamine-biotin incorporation) [5]: fluorescence intensity did not increase

QLQPFPQPQLPY [p57–68]
EC50 of [Ca2+]i increase [7]: 0.9 µg/mL

QQPQDAVQPF [pCTR, irrelevant control peptide … from durum wheat]
[Ca2+]i increase with respect to the basal value ([7]; Caco-2 cells, 20 µg/ml, normal Krebs solution): did not affect
In situ tTG crosslinking activity (fluorescence of pentylamine-biotin incorporation) [5]: fluorescence intensity did not increase
